Experimental data published in patent US20260101901A1, “DELAYING BLOOM IN HORTICULTURAL CROPS USING JASMONIC ACID BIOSYNTHESIS INHIBITORS” (VIRGINIA TECH INTELLECTUAL PROPERTIES INC., priority 2022, published 2026).

Assays:
[1] = tested on: peach and other stone fruits; details: cited from earlier work
‘Redhaven’ peach = assay type: in vivo; details: antipyrine 50 mM, propyl gallate 15 mM, four weekly applications from swollen bud stage
Procedure: (§1) In this study, we investigated the influence of propyl gallate and Antipyrine on the flowering time of ‘Redhaven’ and ‘Sunhigh’ cultivars. Three adjacent trees were randomly chosen, each as a replicate, and subjected to treatments: propyl gallate (15 mM), antipyrine (50 mM), and an untreated control. Four applications of each treatment were administered weekly, commencing at the swollen bud stage, which are concurrent at 2059, 2167, 2356, and 3128 DGH, respectively, employing a hand sprayer with the volume of 2.5 L per tree. Regulaid, a non-ionic surfactant from Kalo Inc. (Overland Park, KS, United States) was mixed with all treatments and experiments at the rate of 250 ppm.
(§2) At the pink-bud stage, three-four branches from each treated and untreated (control) tree were randomly selected across the tree and flagged using colored ribbons. […] The progression of flower opening was recorded by periodically counting the number of open blossoms in each experiment. The number of open flowers (anthers visible) was counted every 1-3 days until all buds reached the full bloom stage (50% of flowers are fully open). The blooming rate at each time point was calculated as the ratio of open blossoms to the initial bud number per tree, and the flowering date (F50) for each treatment was determined when the blooming rate reached 50%. […]

‘Sunhigh’ peach = test: Exp. 5 (2023) field trial: propyl gallate and antipyrine, flowering time; assay type: in vivo; details: antipyrine 50 mM, propyl gallate 15 mM, four weekly applications from swollen bud stage
Procedure: as §1, §2

‘John Boy’ peach trees [2] = test: Exp. 1 (2021) field trial: DIECA concentrations sprayed at 1000 GDH, bloom time, fruit set and size; assay type: in vivo; details: for Heat requirements / Flowering (F50) date / Days from endodormancy release to flowering (F50): sprayed at 1000 GDH, ‘John Boy’ 2021; for Flowering (F50) date: control 06 April; for Days from endodormancy release to flowering (F50): control 69 b
Procedure: (§3) The field trials were taken place at the Alson H. Smith Jr. Agricultural Research and Extension Center (AREC), Winchester, VA, the United States (39°06′36.0′N 78°16′48.0′W). Experiments were conducted over two growing seasons (2021 and 2022) on 3-year-old ‘John Boy’ and 10-year-old ‘Redhaven’ peach trees; both are grafted on ‘Lovell’ rootstock.
(§4) Chilling and heat accumulation were computed from meteorological data obtained from each orchard. Data loggers (EasyLog, Lascar) were kept in enclosed wooden shelters 1.2 m above the ground and recorded temperatures at 10 min intervals. Chilling requirements were calculated using the chilling hours (CH) model (Weinberger, 1950), in which each hourly temperatures within the range of 0-7.2° C. were registered as 1 CH, and temperatures outside of this range were not considered. Starting at 500 CH, three one-year-old branches, each with at least 10 floral buds, were collected weekly from each treatment. After removal of the terminal buds, the branches were placed in a beaker containing a floral solution prepared with Floralife (Smithers-Oasis Co., Walterboro, SC, USA). The floral solution was replaced weekly and around 1 cm was trimmed from the basal end of each branch to eliminate potential infections. The branches were kept in a growth chamber with conditions favoring bud growth (photoperiod with fluorescent lamps at 135 μmol·m^−2·s^−1 of 16 h at 25° C., a dark period of 8 h at 20° C., and a constant relative humidity of 65%). The endodormancy release and CRs were considered fulfilled when 50% of the buds have reached the calyx green stage after 14 days in the growth chamber.
(§5) After completion of CR, heat requirements were recorded according to the growing degree hours (GDH) model proposed by Richardson et al. (1975). In this model, hourly temperatures less than 4.5° C. registered no GDH; temperatures in the interval of 4.5-25° C. were adjusted by subtracting 4.5° C., and temperatures greater than 25° C. were registered as 20.5 (25-4.5) GDH. Heat requirements (HR) were calculated as the GDH accumulated from the date of endodormancy release (under growth chambers conditions) to the date 50% of buds were in full bloom, F50 (under field conditions).
This trial was conducted on ‘John Boy’ peach trees. Three different concentrations (0.5 mM, 10 mM, and 25 mM) of DIECA (Sigma-Aldrich Co., St Louis, MO, USA) were sprayed on three groups of trees, each group is composed of three adjacent trees. Treatments and control (untreated) trees were arranged in a completely randomized design (CRD). At least one buffer tree was assigned between each treatment to avoid spray drift. Trees were sprayed on 3 Mar. 2021 at 1000 GDH at a spray volume of 0.3 L per tree, using a hand sprayer. Regulaid (250 ppm), a non-ionic surfactant from Kalo Inc. (Overland Park, KS, United States) was mixed with all treatments and experiments at the rate of 250 ppm.
(§6) At the pink-bud stage, three-four branches from each treated and untreated (control) tree were randomly selected across the tree and flagged using colored ribbons. The number of buds on selected branches (at least 80 bud/tree) was used as the initial bud count. The progression of flower opening was recorded by periodically counting the number of open blossoms in each experiment. The number of open flowers (anthers visible) was counted every 1-3 days until all buds reached the full bloom stage (50% of flowers are fully open). The blooming rate at each time point was calculated as the ratio of open blossoms to the initial bud number per tree, and the flowering date (F50) for each treatment was determined when the blooming rate reached 50%. The numbers of fruit on the marked branches were counted 2 and 4 and 8 weeks after full bloom. Percent fruit set was calculated as the number of fruits divided by the number of flowers times 100.

‘Redhaven’ peach trees [3] = test: Exp. 2 (2021) field trial: DIECA application timing, bloom time; assay type: in vivo; details: DIECA 10 mM applied at 1000 GDH
Procedure: as §3
(§7) Chilling and heat accumulation were computed from meteorological data obtained from each orchard. Data loggers (EasyLog, Lascar) were kept in enclosed wooden shelters 1.2 m above the ground and recorded temperatures at 10 min intervals. Chilling requirements were calculated using the chilling hours (CH) model (Weinberger, 1950), in which each hourly temperatures within the range of 0-7.2° C. were registered as 1 CH, and temperatures outside of this range were not considered. Starting at 500 CH, three one-year-old branches, each with at least 10 floral buds, were collected weekly from each treatment. […]
(§8) After completion of CR, heat requirements were recorded according to the growing degree hours (GDH) model proposed by Richardson et al. (1975). […] Heat requirements (HR) were calculated as the GDH accumulated from the date of endodormancy release (under growth chambers conditions) to the date 50% of buds were in full bloom, F50 (under field conditions). […]

‘Redhaven’ peach trees [4] = test: Exp. 3 (2022) field trial: DIECA concentrations sprayed at 500 GDH, bloom time and fruit set; assay type: in vivo; details: for Heat requirements / Flowering (F50) date / Days from endodormancy release to flowering (F50): sprayed at 500 GDH, ‘Redhaven’ 2022; for Flowering (F50) date: control 01 April; for Days from endodormancy release to flowering (F50): control 72 c
Procedure: as §3, §4, §5
In this trial, we used peach ‘Redhaven’ trees to examine the effects of three different concentrations (12.5, 25 and 50 mM) of DIECA on blooming time. Three adjacent trees were assigned for each treatment. All treated and untreated (control) trees were distributed in the orchard according to the CRD experimental design. DIECA treatments were applied at 500 GDH at a spray volume of 1.8 L per tree, using a high-pressure tree sprayer.
as §6

‘John Boy’ peach trees [5] = test: Exp. 4 (2022) field trial: late DIECA application at 2000 GDH, bloom time and fruit set; assay type: in vivo; details: DIECA 50 mM at 2000 GDH
Procedure: as §3, §7, §8

‘John Boy’ peach trees [6] = test: Exp. 1 (2021) field trial: DIECA concentrations sprayed at 1000 GDH, bloom time, fruit set and size; assay type: in vivo; set-up: Delay of the flowering date (F50) vs control: dose or concentration left out as unconfirmed
[7] = tested on: ginseng, wheat and tea plant (Camellia sinensis); details: DIECA application; cited from earlier work

## O=P(O)(O)CCCl [ET, 2-chloroethylphosphonic acid]
[1]; high concentration application
  Detrimental effects: gummosis, abortion of floral buds and dieback of the branches
[1]; high concentration, applied in the fall
  Bloom delay: more than two weeks

## CCCOC(=O)c1cc(O)c(O)c(O)c1 [propyl gallate, n-propyl gallate]
‘Redhaven’ peach
  Bloom delay compared to the control: no significant impact
‘Sunhigh’ peach
  Bloom delay compared to the control: single

## CCN(CC)C(=S)[S-].[Na+] [DIECA, sodium diethyldithiocarbamate]
‘John Boy’ peach trees [2]; DIECA 0.5 mM
  Heat requirements: 5373 GDH
  Flowering (F50) date: 06 April
  Days from endodormancy release to flowering (F50): 69 b days
‘John Boy’ peach trees [2]; DIECA 10 mM
  Heat requirements: 5539 GDH
  Flowering (F50) date: 07 April
  Days from endodormancy release to flowering (F50): 70 b days
‘John Boy’ peach trees [2]; DIECA 25 mM (highest concentration), 1000 GDH, ‘John Boy’
  Delay in the blooming: significant delay in the blooming
‘John Boy’ peach trees [2]; DIECA 25 mM
  Heat requirements: 6048 GDH
  Flowering (F50) date: 08 April
  Days from endodormancy release to flowering (F50): 72 a days
‘Redhaven’ peach trees [3]
  Bloom progression compared to the control: slightly delayed bloom progression
‘Redhaven’ peach trees [3]; 2000 GDH or 1000+2000 GDH
  Bloom-delaying effect: None of the DIECA application timings showed a significant bloom-delaying effect
‘Redhaven’ peach trees [4]; DIECA 12.5 mM
  Heat requirements: 6090 GDH
  Flowering (F50) date: 04 April
  Days from endodormancy release to flowering (F50): 75 bc days
‘Redhaven’ peach trees [4]; DIECA 25 mM at 500 GDH
  Delay in bloom time compared to the untreated control: 3 days
‘Redhaven’ peach trees [4]; DIECA 25 mM
  Heat requirements: 6090 GDH
  Flowering (F50) date: 04 April
  Days from endodormancy release to flowering (F50): 75 b days
‘Redhaven’ peach trees [4]; DIECA 50 mM at 500 GDH
  Delay in bloom time compared to the untreated control: 6 days
‘Redhaven’ peach trees [4]; DIECA 50 mM
  Heat requirements: 6478 GDH
  Flowering (F50) date: 07 April
  Days from endodormancy release to flowering (F50): 78 a days
‘Redhaven’ peach trees [4]; all DIECA applications (12.5, 25, 50 mM) at 500 GDH
  Bloom delay: remarkable bloom delay
‘Redhaven’ peach trees [4]; high DIECA concentrations (>25 mM) at early ecodormancy (~500 GDH)
  Bloom delay in peach: 3 to 6 days
‘John Boy’ peach trees [5]
  Flowering time vs control: No significant differences
‘John Boy’ peach trees [6]; DIECA, 1000 GDH, ‘John Boy’
  Delay of the flowering date (F50) vs control: three
[7]
  JA levels: substantially reduce JA levels

## CCN(CC)C(=S)[S][Na] [DIECA, sodium diethyldithiocarbamate]
‘John Boy’ peach trees [2]; DIECA 0.5, 10, 25 mM, 6 WAFB
  Fruit size vs control: No significant differences
‘Redhaven’ peach trees [4]; DIECA 12.5, 25, 50 mM at 500 GDH, 2 and 4 WAFB
  Fruit set (%) vs control: did not show significant differences
‘John Boy’ peach trees [5]; 2 and 4 WAFB
  Fruit set (%) vs control: no significant differences
‘John Boy’ peach trees [6]; DIECA 0.5, 10, 25 mM, 3 and 6 WAFB
  Fruit set (%) vs control: No significant differences

## Cc1cc(=O)n(-c2ccccc2)n1C [Antipyrine, antipyrine]
‘Redhaven’ peach
  Bloom delay compared to the control: two
‘Sunhigh’ peach
  Bloom delay compared to the control: four
